Assay results: patent US20200317660A1, “Quinazolinone Compound and Application Thereof” (LUOXIN PHARMACEUTICAL (SHANGHAI) CO., LTD., priority 2017, published 2020)

Key:
PI3Kα = biological target: T1, PI3Kα (Homo sapiens, UniProt P42336); experiment: In vitro test of enzyme activity (ADP-Glo lipokinase), PI3K alpha; assay type: biochemical; conditions: 40 μM ATP, 50 μM PIP2:3PS, 120 min
T1 construct: purchased Millipore 14-602-K

PI3Kβ = biological target: T2, PI3Kβ (Homo sapiens, UniProt P42338); experiment: In vitro test of enzyme activity (ADP-Glo lipokinase), PI3K beta; assay type: biochemical; conditions: 40 μM ATP, 50 μM PIP2:3PS, 120 min
T2 construct: purchased Promega V1751
T2 sequence (P42338 whole entry): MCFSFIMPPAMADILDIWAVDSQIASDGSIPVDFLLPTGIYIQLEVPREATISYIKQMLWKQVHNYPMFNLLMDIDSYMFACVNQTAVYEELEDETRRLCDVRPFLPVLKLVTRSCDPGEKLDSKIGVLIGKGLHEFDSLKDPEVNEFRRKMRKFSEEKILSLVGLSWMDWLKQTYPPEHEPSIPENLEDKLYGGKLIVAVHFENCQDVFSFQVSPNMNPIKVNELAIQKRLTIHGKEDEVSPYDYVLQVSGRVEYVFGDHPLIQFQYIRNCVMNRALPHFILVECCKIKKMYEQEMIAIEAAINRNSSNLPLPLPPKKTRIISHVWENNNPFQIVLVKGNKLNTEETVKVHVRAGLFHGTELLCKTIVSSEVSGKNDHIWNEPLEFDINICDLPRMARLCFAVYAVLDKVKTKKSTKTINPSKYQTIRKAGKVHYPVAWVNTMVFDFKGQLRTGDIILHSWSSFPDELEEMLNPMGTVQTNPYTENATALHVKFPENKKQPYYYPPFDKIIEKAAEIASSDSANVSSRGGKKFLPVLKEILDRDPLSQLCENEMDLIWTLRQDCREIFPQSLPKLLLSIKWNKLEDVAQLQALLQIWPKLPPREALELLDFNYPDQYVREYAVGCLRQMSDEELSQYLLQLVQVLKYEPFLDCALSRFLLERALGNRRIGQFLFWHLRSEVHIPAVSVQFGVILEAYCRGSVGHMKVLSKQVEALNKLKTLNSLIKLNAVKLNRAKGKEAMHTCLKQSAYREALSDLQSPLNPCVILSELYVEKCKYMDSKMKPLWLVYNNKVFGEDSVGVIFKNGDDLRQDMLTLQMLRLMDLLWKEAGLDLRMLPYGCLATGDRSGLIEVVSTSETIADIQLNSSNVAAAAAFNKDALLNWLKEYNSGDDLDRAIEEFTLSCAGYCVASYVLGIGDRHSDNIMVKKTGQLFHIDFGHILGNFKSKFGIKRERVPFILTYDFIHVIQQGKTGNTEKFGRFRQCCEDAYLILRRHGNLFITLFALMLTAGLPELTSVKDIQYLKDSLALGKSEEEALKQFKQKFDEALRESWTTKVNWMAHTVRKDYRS
T2 sequence (P27986 whole entry partner): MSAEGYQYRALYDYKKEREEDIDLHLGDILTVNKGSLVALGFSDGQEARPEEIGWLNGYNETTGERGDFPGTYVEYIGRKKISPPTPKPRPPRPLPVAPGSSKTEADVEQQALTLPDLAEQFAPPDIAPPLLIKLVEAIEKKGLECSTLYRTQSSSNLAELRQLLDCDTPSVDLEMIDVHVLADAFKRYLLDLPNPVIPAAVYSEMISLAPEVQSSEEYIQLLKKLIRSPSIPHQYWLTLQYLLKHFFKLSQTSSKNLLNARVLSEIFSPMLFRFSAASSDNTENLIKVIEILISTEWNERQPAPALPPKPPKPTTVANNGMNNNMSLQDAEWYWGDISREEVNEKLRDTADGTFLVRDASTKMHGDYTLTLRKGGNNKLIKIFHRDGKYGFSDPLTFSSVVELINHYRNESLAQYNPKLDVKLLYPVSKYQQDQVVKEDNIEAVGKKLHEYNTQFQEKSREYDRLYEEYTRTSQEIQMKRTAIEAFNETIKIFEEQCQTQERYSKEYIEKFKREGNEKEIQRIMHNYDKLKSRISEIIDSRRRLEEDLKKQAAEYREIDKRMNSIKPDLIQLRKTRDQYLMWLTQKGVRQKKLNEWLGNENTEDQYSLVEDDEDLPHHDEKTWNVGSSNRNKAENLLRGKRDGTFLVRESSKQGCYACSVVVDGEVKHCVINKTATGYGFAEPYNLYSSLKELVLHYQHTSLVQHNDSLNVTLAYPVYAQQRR

PI3Kδ = biological target: T3, PI3Kδ (Homo sapiens, UniProt O00329); experiment: In vitro test of enzyme activity (ADP-Glo lipokinase), PI3K delta; assay type: biochemical; conditions: 40 μM ATP, 50 μM PIP2:3PS, 120 min
T3 construct: purchased Millipore 14-604-K
T3 sequence (O00329 whole entry): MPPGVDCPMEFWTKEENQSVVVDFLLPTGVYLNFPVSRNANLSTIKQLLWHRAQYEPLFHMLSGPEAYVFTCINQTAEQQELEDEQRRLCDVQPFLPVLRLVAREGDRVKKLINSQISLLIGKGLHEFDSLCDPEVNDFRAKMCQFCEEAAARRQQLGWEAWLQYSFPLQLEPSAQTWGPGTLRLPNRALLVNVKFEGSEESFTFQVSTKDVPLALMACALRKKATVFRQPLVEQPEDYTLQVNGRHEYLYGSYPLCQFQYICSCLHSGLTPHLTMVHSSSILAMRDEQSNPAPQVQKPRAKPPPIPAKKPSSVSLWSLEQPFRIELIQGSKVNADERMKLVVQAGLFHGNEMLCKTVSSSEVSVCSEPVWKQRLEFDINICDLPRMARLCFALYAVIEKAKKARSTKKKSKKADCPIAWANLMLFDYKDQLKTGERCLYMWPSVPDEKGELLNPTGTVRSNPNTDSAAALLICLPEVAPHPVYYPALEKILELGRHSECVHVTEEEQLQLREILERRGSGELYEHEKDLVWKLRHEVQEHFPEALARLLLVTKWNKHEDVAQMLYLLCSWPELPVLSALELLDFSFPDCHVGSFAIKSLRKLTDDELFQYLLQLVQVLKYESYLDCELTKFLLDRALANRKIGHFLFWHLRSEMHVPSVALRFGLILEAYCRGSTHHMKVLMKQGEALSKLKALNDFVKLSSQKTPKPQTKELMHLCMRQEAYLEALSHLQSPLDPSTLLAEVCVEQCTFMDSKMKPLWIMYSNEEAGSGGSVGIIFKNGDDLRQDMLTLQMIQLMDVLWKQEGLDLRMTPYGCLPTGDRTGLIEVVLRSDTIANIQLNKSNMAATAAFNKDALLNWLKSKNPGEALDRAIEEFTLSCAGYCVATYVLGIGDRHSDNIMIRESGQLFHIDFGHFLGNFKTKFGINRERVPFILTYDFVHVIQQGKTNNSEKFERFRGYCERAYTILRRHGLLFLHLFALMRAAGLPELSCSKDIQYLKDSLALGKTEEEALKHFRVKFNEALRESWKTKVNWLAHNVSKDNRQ
T3 sequence (P27986 whole entry partner): as the sequence (P27986 whole entry partner) above

[1] = In vivo DMPK study in mice after a single administration; set-up: species or system female Balb/c mice; conditions: female, Balb/c, mouse, plasma, intravenous 1 mg/kg
Procedure: Experimental objective: female Balb/c mice were used as the test animals, and the blood concentration of the compound was determined and the pharmacokinetic behavior was evaluated after a single administration.
Experimental operation: 12 healthy adult female Balb/c mice were selected, 6 for intravenous injection group and 6 for oral administration group. The compound to be tested was mixed with an appropriate amount of intravenous injection group vehicle (10% HP-betaCD: 10% solutol=1:1, pH=8), vortex-mixed and sonicated to prepare a 1.0 mg/mL clear solution, followed by filtration for subsequent use; the vehicle in the oral group was 0.5% MC/0.2% Tw80. After the test compound and the vehicle were mixed, it was vortex-mixed and sonicated to prepare a 1.0 mg/mL homogeneous suspension for subsequent use. After an intravenous administration at a dose of 1 mg/kg or an oral administration at the dose of 2 mg/kg and 10 mg/kg, whole blood of the mice was collected for a certain period of time to prepare plasma. The drug concentration was analyzed by LC-MS/MS method, and Phoenix WinNonlin software was used (Pharsight, USA) to calculate the pharmacokinetic parameters.
Cmax: the highest concentration of the drug in the body; F %: oral bioavailability; Oral DNAUC: area under the dose normalization curve; Vd: apparent volume of distribution; Cl: clearance rate; T1/2: half-life.

T1 sequence (P42336 whole entry): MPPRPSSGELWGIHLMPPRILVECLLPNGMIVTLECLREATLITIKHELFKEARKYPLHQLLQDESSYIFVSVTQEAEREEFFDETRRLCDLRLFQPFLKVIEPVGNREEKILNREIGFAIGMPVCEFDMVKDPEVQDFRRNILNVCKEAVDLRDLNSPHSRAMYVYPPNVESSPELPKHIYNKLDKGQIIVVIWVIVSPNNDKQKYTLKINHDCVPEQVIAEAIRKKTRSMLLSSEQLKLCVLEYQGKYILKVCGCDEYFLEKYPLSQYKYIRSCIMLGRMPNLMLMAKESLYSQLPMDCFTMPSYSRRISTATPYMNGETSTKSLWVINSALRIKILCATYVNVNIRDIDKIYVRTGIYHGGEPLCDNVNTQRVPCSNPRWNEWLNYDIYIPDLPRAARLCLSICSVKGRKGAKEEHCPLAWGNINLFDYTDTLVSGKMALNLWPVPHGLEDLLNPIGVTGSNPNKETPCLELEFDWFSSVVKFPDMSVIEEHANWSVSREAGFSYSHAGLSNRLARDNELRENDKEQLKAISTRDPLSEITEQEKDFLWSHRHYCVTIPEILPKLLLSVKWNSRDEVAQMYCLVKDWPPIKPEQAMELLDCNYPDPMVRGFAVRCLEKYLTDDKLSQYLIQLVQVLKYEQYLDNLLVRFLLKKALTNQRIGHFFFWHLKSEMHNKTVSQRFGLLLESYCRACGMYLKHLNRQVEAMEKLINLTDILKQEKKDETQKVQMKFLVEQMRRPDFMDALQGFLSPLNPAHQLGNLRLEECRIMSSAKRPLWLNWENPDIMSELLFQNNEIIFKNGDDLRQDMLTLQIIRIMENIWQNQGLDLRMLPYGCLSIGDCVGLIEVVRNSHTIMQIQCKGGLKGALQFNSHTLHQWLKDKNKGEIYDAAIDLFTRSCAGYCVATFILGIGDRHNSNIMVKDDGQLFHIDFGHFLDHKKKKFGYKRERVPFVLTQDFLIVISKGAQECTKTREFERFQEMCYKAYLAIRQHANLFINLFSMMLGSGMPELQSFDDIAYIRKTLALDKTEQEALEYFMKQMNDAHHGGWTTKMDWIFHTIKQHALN
T1 sequence (P27986 whole entry partner): as the sequence (P27986 whole entry partner) above

## CNC(=O)CCCn1cnc2ccc(-c3cnc(OC)c(NS(=O)(=O)c4ccc(F)cc4Cl)c3)cc2c1=O [WX198]
PI3Kα
  IC50: 1.1 nM
PI3Kβ
  IC50: 33 nM
PI3Kδ
  IC50: 2.1 nM
[1]; read-out: Cl (clearance rate)
  clearance: 4.16 mL/min/kg
[1]; read-out: Intravenous injection T1/2 (converted)
  half-life: 53.4 min
[1]; read-out: Vd (apparent volume of distribution)
  Vd: 0.257 L/kg
